Reference: patent US8410161B2, “Thioxanthone ring system derivatives” (National Defense Medical Center, priority 2010, dated 2013)

Assays:
Assay type in all cases: cell-based
[1] = system: A3 cell lines; assay: MTT assay, A3 cell lines (lung cancer stem cell)
Excerpt: Please to FIG. 4B, various cell viabilities of the A3 cell lines can be obtained through the MTT assay and illustrated in FIG. 4B while the compounds No. 1˜30 are used to treat A3 cell lines, wherein A3 cell lines are lung cancer stem cell.

[2] = MTT assay, HEL299 fibroblast; conditions: human
Excerpt: Please refer to FIG. 4C, various cell viabilities of the HEL299 cell lines can be obtained through the MTT assay while the compounds No. 1˜30 are used to treat HEL299 cell lines, wherein HEL299 cell lines are fibroblast.

[3] = system: A control cell lines; assay: MTT assay, A control cell lines (lung cancer cell)
Excerpt: Please refer to Table 1 and FIGS. 4A-4C. According to a MTT assay (Table 1), various cell viabilities of the A control cell lines can be obtained and illustrated in FIG. 4A while the compounds No. 2˜30 are used to treat A control cell lines, wherein A control cell lines are lung cancer cell.

| Compound | cell viabilities of A3 cell lines (MTT assay) [1] | viability [2] | cell viabilities of A control cell lines (MTT assay) [3] |
| --- | --- | --- | --- |
| CCSc1ccc2c(=O)c3ccccc3sc2c1Cl [No. 2, 4-Chloro-3-(ethylthio)-9H-thioxanthen-9-one] | 72.7 ± 2.60% | 34 ± 7.95% | 85.1 ± 2.74% |
| Cc1ccc(Sc2ccc3c(=O)c4ccccc4sc3c2Cl)cc1C [No. 13, 4-Chloro-3-(3,4-dimethylphenylthio)-9H-thioxanthen-9-one] | 112 ± 1.86% | 112 ± 11.2% | 113 ± 5.86% |
| O=c1c2ccccc2sc2c(Cl)c(Sc3cccc(Cl)c3)ccc12 [No. 30, 4-Chloro-3-(3-chlorophenylthio)-9H-thioxanthen-9-one] | 92.2 ± 6.17% | 101 ± 3.7% | 97.7 ± 1.46% |
| O=c1c2ccccc2sc2c(Cl)c(Cl)ccc12 [No. 1, 3,4-dichloro-9H-thioxanthen-9-one] | 83.7 ± 6.22% | 68.5 ± 12% |  |
| CCc1ccccc1Sc1ccc2c(=O)c3ccccc3sc2c1Cl [No. 18, 4-Chloro-3-(2-ethylphenylthio)-9H-thioxanthen-9-one] | 77.2 ± 5.23% | 104 ± 14.2% | 73.2 ± 10.2% |
| Cc1ccc(Sc2ccc3c(=O)c4ccccc4sc3c2Cl)cc1 [No. 9, 4-Chloro-3-(p-tolylthio)-9H-thioxanthen-9-one] | 115 ± 4.55% | 98.4 ± 12.8% | 119 ± 4.69% |
| CC(C)c1ccc(Sc2ccc3c(=O)c4ccccc4sc3c2Cl)cc1 [No. 20, 4-Chloro-3-(4-isopropylphenylthio)-9H-thioxanthen-9-one] | 93.9 ± 6.97% | 110 ± 14.3% | 74.6 ± 11.2% |
| O=c1c2ccccc2sc2c(Cl)c(SC3CCCC3)ccc12 [No. 5, 4-Chloro-3-(cyclopentylthio)-9H-thioxanthen-9-one] | 107 ± 7.17% | 89.5 ± 13.7% | 108 ± 7.69% |
| CC(C)c1ccccc1Sc1ccc2c(=O)c3ccccc3sc2c1Cl [No. 21, 4-Chloro-3-(2-isopropylphenylthio)-9H-thioxanthen-9-one] | 93.7 ± 6.01% | 107 ± 5.4% | 83.5 ± 12.6% |
| COc1ccccc1Sc1ccc2c(=O)c3ccccc3sc2c1Cl [No. 15, 4-Chloro-3-(2-methoxylphenylthio)-9H-thioxanthen-9-one] | 99.0 ± 3.41% | 73 ± 12.3% | 85.4 ± 9.66% |
| Cc1cccc(Sc2ccc3c(=O)c4ccccc4sc3c2Cl)c1 [No. 8, 4-Chloro-3-(m-tolylthio)-9H-thioxanthen-9-one] | 116 ± 1.49% | 74.8 ± 4.04% | 120 ± 1.51% |
| COc1ccc(Sc2ccc3c(=O)c4ccccc4sc3c2Cl)cc1 [No. 17, 4-Chloro-3-(4-methoxylphenylthio)-9H-thioxanthen-9-one] | 89.4 ± 1.88% | 109 ± 14.5% | 97.1 ± 8.74% |
| Cc1ccccc1Sc1ccc2c(=O)c3ccccc3sc2c1Cl [No. 7, 4-Chloro-3-(o-tolylthio)-9H-thioxanthen-9-one] | 81.6 ± 4.98% | 91.1 ± 18.7% | 103 ± 2.86% |
| Cc1ccc(C)c(Sc2ccc3c(=O)c4ccccc4sc3c2Cl)c1 [No. 11, 4-Chloro-3-(2,5-dimethylphenylthio)-9H-thioxanthen-9-one] | 96.9 ± 5.20% | 94.4 ± 10.1% | 105 ± 2.56% |
| O=c1c2ccccc2sc2c(Cl)c(Sc3ccc(Br)cc3)ccc12 [No. 22, 3-(4-Bromophenylthio)-4-chloro-9H-thioxanthen-9-one] | 70.8 ± 3.86% | 66.1 ± 0.66% | 104 ± 1.89% |
| CCOc1cccc(Sc2ccc3c(=O)c4ccccc4sc3c2Cl)c1 [No. 19, 4-Chloro-3-(3-ethoxylphenylthio)-9H-thioxanthen-9-one] | 98.2 ± 4.79% | 90.3 ± 14.4% | 91.3 ± 1.74% |
